In ChEMBL document CHEMBL1201862, “PubChem BioAssay data set” (2004):
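96-well plates; 48 h exposure; 5 concentrations. Endpoints by linear interpolation between flanking doses. Not reached: highest tested concentration assigned. GI50: concentration for 50% inhibition of growth.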 Calls of active or inactive are those of the source. Cut-off read from the data, not from the text of the source: active = GI50 up to about 1.1 µM and inactive = higher.

Tests used:
Assay in all cases: growth of human tumour cells (NCI), 48 h
SK-MEL-28 = tested on: SK-MEL-28
EKVX = tested on: EKVX
HCT-15 = tested on: HCT-15
HT-29 = tested on: HT-29
M14 = tested on: M14
SR = tested on: SR
SNB-75 = tested on: SNB-75
RXF 393 = tested on: RXF 393
U-251 = tested on: U-251
786-0 = tested on: 786-0
UO-31 = tested on: UO-31
OVCAR-4 = tested on: OVCAR-4
NCI-H226 = tested on: NCI-H226
A498 = tested on: A498
KM12 = tested on: KM12
CAKI-1 = tested on: CAKI-1
MCF7 = tested on: MCF7
DU-145 = tested on: DU-145
MDA-MB-231 = tested on: MDA-MB-231

SMILES | GI50 (SK-MEL-28) | GI50 (EKVX) | GI50 (HCT-15) [µM] | GI50 (HT-29) | GI50 (M14) | GI50 (SR) | GI50 (SNB-75) | GI50 (RXF 393) | GI50 (U-251) | GI50 (786-0) | GI50 (UO-31) | GI50 (OVCAR-4) | GI50 (NCI-H226) | GI50 (A498) | GI50 (KM12) | GI50 (CAKI-1) | GI50 (MCF7) | GI50 (DU-145) | GI50 (MDA-MB-231)
Cc1cc(=O)oc2cc(OCCCOc3ccc4c(C)cc(=O)oc4c3)ccc12 | > 100 µM (inactive) | > 100 µM (inactive) | > 100 | > 100 µM (inactive) | > 100 µM (inactive) | > 100 µM (inactive) | 38.6 µM (inactive) | > 100 µM (inactive) | > 100 µM (inactive) | 59.8 µM (inactive) | > 100 µM (inactive) | > 100 µM (inactive) | > 100 µM (inactive) | > 100 µM (inactive) |  |  |  |  | 
CCOC(=O)N1C2C=C(C)C(ON2C(=O)c2ccccc2)C2C(C)C(=O)N21 (centres undefined) | > 100 µM (inactive) | > 100 µM (inactive) | > 100 | > 100 µM (inactive) | > 100 µM (inactive) | > 100 µM (inactive) | 23.6 µM (inactive) | > 100 µM (inactive) | > 100 µM (inactive) | > 100 µM (inactive) | > 100 µM (inactive) | > 100 µM (inactive) | > 100 µM (inactive) | > 100 µM (inactive) | > 100 µM (inactive) |  |  |  | 
Cc1nnc(N/N=C(/C(=O)C(C#N)c2ccccc2)C(C#N)c2ccccc2)n1N (centres undefined) | 20 µM (inactive) | 51.9 µM (inactive) | 16.1 | 6.4 µM (inactive) | 16.8 µM (inactive) | 32.3 µM (inactive) | 16.4 µM (inactive) | 17 µM (inactive) | 32.6 µM (inactive) | 11.8 µM (inactive) | 26.4 µM (inactive) | 24.4 µM (inactive) | 28.8 µM (inactive) | 7.98 µM (inactive) | 28.4 µM (inactive) | 32.1 µM (inactive) |  |  | 
CC1=C(C(=O)Nc2ccc([N+](=O)[O-])cc2)C(c2ccc3c(c2)OCO3)C(C(=O)Nc2ccc([N+](=O)[O-])cc2)=C(C)N1 | 24.9 µM (inactive) | 8.2 µM (inactive) | 8.09 | 6.95 µM (inactive) | 6.78 µM (inactive) | 1.98 µM (inactive) | 6.18 µM (inactive) | 25.3 µM (inactive) | 30.1 µM (inactive) | 14.1 µM (inactive) | 6.4 µM (inactive) | 10.6 µM (inactive) | 14.7 µM (inactive) | 14.2 µM (inactive) | 3.8 µM (inactive) | 23.7 µM (inactive) |  |  | 
COc1ccc(N2C(=O)C3c4[nH]c5ccccc5c4C4c5ccccc5CC4C3C2=O)cc1 (centres undefined) | > 100 µM (inactive) | > 100 µM (inactive) | > 100 | > 100 µM (inactive) | > 100 µM (inactive) | > 100 µM (inactive) | > 100 µM (inactive) | > 100 µM (inactive) | > 100 µM (inactive) | > 100 µM (inactive) | > 100 µM (inactive) | > 100 µM (inactive) | > 100 µM (inactive) | > 100 µM (inactive) | > 100 µM (inactive) | > 100 µM (inactive) | > 100 µM (inactive) | > 100 µM (inactive) | > 100 µM (inactive)
O=c1c(O)c(-c2ccccc2)n(O)c2ccc(Cl)cc12 | 44 µM (inactive) |  | 16 | 36.8 µM (inactive) | 30.8 µM (inactive) | 28.8 µM (inactive) | 29 µM (inactive) | 23.1 µM (inactive) | 25.8 µM (inactive) | 28.7 µM (inactive) | 51.2 µM (inactive) | 36.3 µM (inactive) | 19.1 µM (inactive) | 29.2 µM (inactive) | 31.6 µM (inactive) | 29.9 µM (inactive) |  |  | 
COc1ccc(Cc2nc3ccccc3s2)cc1OC | 18 µM (inactive) | 20.8 µM (inactive) | 24.2 | 18.7 µM (inactive) | 17.5 µM (inactive) | 18.9 µM (inactive) | 18.8 µM (inactive) | 19.6 µM (inactive) | 14.6 µM (inactive) | 17.9 µM (inactive) | 16.4 µM (inactive) | 16.4 µM (inactive) | 21 µM (inactive) | 23.7 µM (inactive) | 17.4 µM (inactive) | 15.5 µM (inactive) |  |  | 
CC1CC(C)C(C(O)CC2CC(=O)N(c3ccccc3)C(=O)C2)C(O)C1 (centres undefined) | > 100 µM (inactive) | > 100 µM (inactive) |  | > 100 µM (inactive) | > 100 µM (inactive) | > 100 µM (inactive) | > 100 µM (inactive) | > 100 µM (inactive) | > 100 µM (inactive) | > 100 µM (inactive) | > 100 µM (inactive) | > 100 µM (inactive) | > 100 µM (inactive) | > 100 µM (inactive) | > 100 µM (inactive) | > 100 µM (inactive) |  |  | 
O=[N+]([O-])c1cc([N+](=O)[O-])c(C(Cl)C(Cl)c2ccccc2)cc1C(Cl)C(Cl)c1ccccc1 (centres undefined) | 1.9 µM (inactive) | 2.2 µM (inactive) | 1.48 | 2.17 µM (inactive) | 1.49 µM (inactive) | 3.18 µM (inactive) | 2.47 µM (inactive) | 1.33 µM (inactive) | 1.82 µM (inactive) | 1.69 µM (inactive) | 1.51 µM (inactive) | 2.64 µM (inactive) | 2.23 µM (inactive) | 1.82 µM (inactive) | 1.85 µM (inactive) | 1.71 µM (inactive) |  |  | 
COc1ccc(-c2c(C#N)c(S)n(NS(=O)(=O)c3ccc(C)cc3)c(=O)c2C#N)cc1 | 24.2 µM (inactive) | 25.8 µM (inactive) | 16 | 31.6 µM (inactive) | 17.7 µM (inactive) |  | 30.5 µM (inactive) | 17.5 µM (inactive) | 29.4 µM (inactive) | 15.6 µM (inactive) |  | 23.7 µM (inactive) | 20 µM (inactive) | 30.5 µM (inactive) | 15.3 µM (inactive) | 44.5 µM (inactive) | 29.4 µM (inactive) |  | 17.8 µM (inactive)
COc1ccc(SS(=O)(=O)c2ccc(OC)cc2)cc1 | 19.6 µM (inactive) | 21.1 µM (inactive) | 36.7 | 32.1 µM (inactive) | 20 µM (inactive) | 23.1 µM (inactive) | 23.2 µM (inactive) | 18.1 µM (inactive) | 14.2 µM (inactive) | 17.2 µM (inactive) | 13.9 µM (inactive) |  | 23.6 µM (inactive) | 17.2 µM (inactive) | 16.5 µM (inactive) | 22.5 µM (inactive) |  |  | 
CC(Oc1ccc2cc(C(=O)c3ccccc3)c(=O)oc2c1)C(=O)O (centres undefined) | > 100 µM (inactive) | > 100 µM (inactive) |  | > 100 µM (inactive) | > 100 µM (inactive) | > 100 µM (inactive) | > 100 µM (inactive) | > 100 µM (inactive) | > 100 µM (inactive) | > 100 µM (inactive) | > 100 µM (inactive) | > 100 µM (inactive) | > 100 µM (inactive) | > 100 µM (inactive) | > 100 µM (inactive) | > 100 µM (inactive) |  |  | 
CCOC(=N)CC(=O)Nc1ccccc1CC | > 100 µM (inactive) | > 100 µM (inactive) | > 100 | > 100 µM (inactive) | > 100 µM (inactive) | > 100 µM (inactive) | > 100 µM (inactive) | > 100 µM (inactive) | > 100 µM (inactive) | > 100 µM (inactive) | > 100 µM (inactive) | > 100 µM (inactive) | > 100 µM (inactive) | > 100 µM (inactive) | > 100 µM (inactive) | > 100 µM (inactive) |  |  | 
CCCCCCCCCCCCCCCC(=O)OCCOCCOCCOCCOCCOC(=O)CCCCCCCCCCCCCCC | > 100 µM (inactive) | > 100 µM (inactive) | > 100 | > 100 µM (inactive) | > 100 µM (inactive) | > 100 µM (inactive) | > 10 µM (inactive) | > 100 µM (inactive) | > 100 µM (inactive) | > 100 µM (inactive) | > 100 µM (inactive) | > 100 µM (inactive) | > 100 µM (inactive) | > 100 µM (inactive) | > 100 µM (inactive) | > 100 µM (inactive) |  |  | 
CCOC(=O)Cc1nc2ccccc2s1 | 15 µM (inactive) | 39.4 µM (inactive) |  | 19.6 µM (inactive) | 16.6 µM (inactive) | 20.1 µM (inactive) | 29.3 µM (inactive) | 20.9 µM (inactive) | 17 µM (inactive) | 18.9 µM (inactive) | 15.8 µM (inactive) | > 10 µM (inactive) | 21.8 µM (inactive) | 18.5 µM (inactive) | > 10 µM (inactive) | 19.6 µM (inactive) |  |  | 
CC(C)c1cc(OCC(O)CO)cc(C(C)C)c1 (centres undefined) | > 100 µM (inactive) | > 100 µM (inactive) | > 100 | > 100 µM (inactive) | > 100 µM (inactive) | > 100 µM (inactive) | > 100 µM (inactive) | > 100 µM (inactive) | > 100 µM (inactive) | > 100 µM (inactive) | > 100 µM (inactive) | > 100 µM (inactive) | > 100 µM (inactive) | > 100 µM (inactive) | > 100 µM (inactive) | > 100 µM (inactive) |  |  | 
CC1(C)OC(CCC#N)CN1C(=O)OCc1ccccc1 (centres undefined) | > 100 µM (inactive) | > 100 µM (inactive) | > 100 |  | > 100 µM (inactive) | > 100 µM (inactive) | 3.4 µM (inactive) | > 100 µM (inactive) | > 100 µM (inactive) | > 100 µM (inactive) | > 100 µM (inactive) | > 100 µM (inactive) | 23.6 µM (inactive) | > 100 µM (inactive) | 28.9 µM (inactive) | > 100 µM (inactive) | > 100 µM (inactive) | > 100 µM (inactive) | > 100 µM (inactive)
